Reference: US9936700B2, “Substituted quinoxaline derivatives as pest control agent” (BAYER CROPSCIENCE AKTIENGESELLSCHAFT, priority 2013, dated 2018)
Where two headings read alike, the source gives them in different places.

Assays:
[1] = log P by reversed-phase HPLC (EEC Directive 79/831 Annex V.A8); type: physicochemical; settings: for chromatographic logP: reversed-phase C18 HPLC column
Description: NMR data and log P values: log P (HCOOH)=log P[a] log P (neutral)=log P[b]
^[a] […] Called log P (HCOOH) in the table.
^[b] […] Called log P (neutral) in the table.

Myzus persicae = Myzus persicae spray test (MYZUPE); type: in vivo; settings: Chinese cabbage leaf discs, after 6 days
Protocol: Myzus persicae—spray test (MYZUPE)
• Solvent: 78 parts by weight of acetone • 1.5 parts by weight of dimethylformamide • Emulsifier: 0.5 part by weight of alkylaryl polyglycol ether
After 6 days, the efficacy in % is determined. 100% means that all the aphids have been killed; 0% means that no aphids have been killed.

Tetranychus urticae = Tetranychus urticae spray test, OP-resistant (TETRUR); type: in vivo; settings: 500 g/ha, bean leaf discs, after 6 days
Protocol: Tetranychus urticae—spray test, OP-resistant (TETRUR)
• Solvent: 78.0 parts by weight of acetone • 1.5 parts by weight of dimethylformamide • Emulsifier: 0.5 part by weight of alkylaryl polyglycol ether
After 6 days, the efficacy in % is determined. 100% means that all the spider mites have been killed; 0% means that no spider mites have been killed.

Aphis gossypii = Aphis gossypii spray test; type: in vivo; settings: 100 ppm, cotton plants, after 6 days
Protocol: Aphis gossypii—spray test
• Solvent: 7 parts by weight of dimethylformamide • Emulsifier: alkylaryl polyglycol ether
To produce further test concentrations, the preparation is diluted with emulsifier-containing water. If the addition of ammonium salts or/and penetrants is required, these are each added in a concentration of 1000 ppm to the formulation solution.
After 6 days, the kill in % is determined. 100% means that all the aphids have been killed; 0% means that no aphids have been killed.

[2] = acidic range, pH 2.7, 0.1% aqueous formic acid/acetonitrile, read-out: logP [a] = log P (HCOOH)
[3] = acidic range, pH 2.7, 0.1% aqueous formic acid/acetonitrile
[4] = neutral range, pH 7.8, aqueous ammonium hydrogencarbonate/acetonitrile

| logP [a] = log P (HCOOH) ([1]; pH 2.7) | SMILES | logP [a] = log P (HCOOH) [1, 3] | also measured |
| --- | --- | --- | --- |
|  | CCSc1ccccc1-c1nc2ccc(C(F)(F)F)cc2nc1Cl [Example I-3, 3-Chloro-2-[2-(ethylsulfanyl)phenyl]-6-(trifluoromethyl)quinoxaline] |  | chromatographic logP [1, 2]: 5.2 |
|  | Cc1nc2cc(C(F)(F)F)ccc2nc1-c1cccnc1 [Example I-60] | 2.39 |  |
|  | Clc1cc2ncc(-c3ccncc3)nc2cc1Cl [Example I-73] | 2.53 |  |
| 3.24 | FC1(F)Oc2cc3ncc(-c4ccncc4Cl)nc3cc2O1 [Example I-72] |  |  |
|  | Clc1ccc2nc(-c3ccnc(Cl)c3)cnc2c1 [Example I-69] | 3.52 |  |
| 2.52 | CS(=O)(=O)c1ccccc1-c1cnc2cc(Cl)ccc2n1 [Example I-28] |  | logP [b] = log P (neutral) ([1]; pH 7.8): 2.52 |
|  | O=c1cnc2ccc(C(F)(F)F)cc2[nH]1 [VIa-02, 7-(trifluoromethyl)quinoxalin-2(1H)-one] |  | chromatographic logP ([1]; neutral range, pH 7.8, aqueous ammonium hydrogencarbonate/acetonitrile, read-out: logP [b] = log P (neutral)): 1.65 |
| 4.08 | CSc1ccccc1-c1cnc2cc(Cl)ccc2n1 [Example I-22] |  | efficacy (aphids killed) (Myzus persicae; 500 g/ha): 90% |
| 2.72 | Fc1cc2ncc(-c3ccncc3Cl)nc2cc1F [Example I-70] |  |  |
| 2.33 | FC(F)(F)c1ccc2nc(-c3cncnc3)cnc2c1 [Example I-12] |  | efficacy (spider mites killed) (Tetranychus urticae): 90% |
| 4.57 | Cc1cscc1-c1cnc2cc(C(F)(F)F)ccc2n1 [Example I-45] |  |  |
| 2.60 | COc1cnccc1-c1cnc2ccc(C(F)(F)F)cc2n1 [Example I-62] |  | efficacy (kill of aphids) (Aphis gossypii): 97%; efficacy (aphids killed) (Myzus persicae; 100 g/ha): 90% |
|  | Cc1ccccc1-c1cnc2ccc(C(F)(F)F)cc2n1 [Example I-47] | 4.47 | logP [b] = log P (neutral) [1, 4]: 4.41 |
|  | N#Cc1ccc2nc(-c3ccncc3)cnc2c1 [Example I-61] | 1.19 |  |
|  | FC(F)(F)c1ccc2nc(Cl)c(-c3ccc(Cl)cc3)nc2c1 [Example I-53] | 5.31 |  |
|  | FC1(F)Oc2cc3ncc(-c4ccc(C(F)(F)F)cc4)nc3cc2O1 [Example I-5, 2,2-Difluoro-6-[4-(trifluoromethyl)phenyl][1,3]dioxolo [4,5-g]quinoxaline] |  | chromatographic logP [1, 2]: 5.02 |
| 4.56 | CCSc1ccccc1-c1cnc2cc(Cl)ccc2n1 [Example I-23] |  |  |
|  | CCc1cnccc1-c1cnc2ccc(C(F)(F)F)cc2n1 [Example I-27] |  | efficacy (spider mites killed) (Tetranychus urticae): 90% |
|  | Cn1nccc1-c1cnc2cc(C(F)(F)F)ccc2n1 [Example I-49] | 3.07 | logP [b] = log P (neutral) [1, 4]: 3.05 |
|  | FC(F)(F)c1ccc2nc(-c3ccccn3)cnc2c1 [Example I-18] | 3.72 | efficacy (spider mites killed) (Tetranychus urticae): 90%; efficacy (aphids killed) (Myzus persicae; 500 g/ha): 90%; logP [b] = log P (neutral) [1, 4]: 3.75 |
|  | Cn1nccc1-c1cnc2ccc(C(F)(F)F)cc2n1 [Example I-50] | 3.02 | logP [b] = log P (neutral) [1, 4]: 3.00 |
|  | CCSc1ccccc1-c1nc2cc3c(cc2nc1-c1ccc(Cl)cc1)OC(F)(F)O3 [Example I-59] | 6.23 |  |
| 3.78 | Clc1cc2ncc(-c3ccncc3Cl)nc2cc1Cl [Example I-71] |  |  |

| SMILES | logP [a] = log P (HCOOH) ([1]; pH 2.7) | logP [a] = log P (HCOOH) [1, 3] | also measured |
| --- | --- | --- | --- |
| Cc1cnccc1-c1cnc2cc(Cl)c(Cl)cc2n1 [Example I-41] | 2.51 |  | logP [b] = log P (neutral) ([1]; pH 7.8): 3.29 |
| Cc1cnccc1-c1nc2cc3c(cc2nc1C)OC(F)(F)O3 [Example I-67] | 2.02 |  |  |
| Cc1cnccc1-c1cnc2cc(C#N)ccc2n1 [Example I-56] | 1.17 |  | logP [b] = log P (neutral) ([1]; pH 7.8): 1.81 |
| Cc1cnccc1-c1cnc2cc(Cl)ccc2n1 [Example I-17] | 1.69 |  | logP [b] = log P (neutral) ([1]; pH 7.8): 2.58 |
| Cc1cnccc1-c1nc2ccc(C(F)(F)F)cc2nc1Cl [Example I-37] | 2.94 |  |  |
| Cc1cccnc1-c1cnc2cc(C(F)(F)F)ccc2n1 [Example I-52] | 3.69 |  |  |
| Cc1cnccc1-c1nc2cc(F)c(F)cc2nc1C [Example I-65] | 1.58 |  |  |
